According to the supplement of paper PMC10307832:

How the values were obtained:
Test in all cases: relative viability (nuclei count vs DMSO), 5 days (fraction); higher = more cells survive
Doramapimod + Olaparib = compound: Cc1ccc(-n2nc(C(C)(C)C)cc2NC(=O)Nc2ccc(OCCN3CCOCC3)c3ccccc23)cc1 [Doramapimod] + O=C(c1cc(Cc2n[nH]c(=O)c3ccccc23)ccc1F)N1CCN(C(=O)C2CC2)CC1 [Olaparib] (partner 8 µM)
Summary of the method: (§1)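 Values are medians from duplicate plates. Each reflects relative viability, defined as the nuclei count of treated wells over that of vehicle wells. Lung cancer cell lines in 1536-well plates were pin-tool dosed one day after seeding with one drug alone or with a fixed anchor-drug dose plus five library-drug doses (not always all listed) in √10 steps, then fixed, stained and imaged at 4× after 5 days.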

RAF265 + Olaparib = compound: Cn1c(Nc2ccc(C(F)(F)F)cc2)nc2cc(Oc3ccnc(-c4ncc(C(F)(F)F)[nH]4)c3)ccc21 [RAF265] + O=C(c1cc(Cc2n[nH]c(=O)c3ccccc23)ccc1F)N1CCN(C(=O)C2CC2)CC1 [Olaparib] (partner 8 µM)
Summary of the method: as §1

Doramapimod + OSI-027 = compound: Cc1ccc(-n2nc(C(C)(C)C)cc2NC(=O)Nc2ccc(OCCN3CCOCC3)c3ccccc23)cc1 [Doramapimod] + COc1cccc2cc(-c3nc([C@H]4CC[C@H](C(=O)O)CC4)n4ncnc(N)c34)[nH]c12 [OSI-027] (partner 0.5 µM)
Summary of the method: as §1

RAF265 + Pictilisib = compound: Cn1c(Nc2ccc(C(F)(F)F)cc2)nc2cc(Oc3ccnc(-c4ncc(C(F)(F)F)[nH]4)c3)ccc21 [RAF265] + CS(=O)(=O)N1CCN(Cc2cc3nc(-c4cccc5[nH]ncc45)nc(N4CCOCC4)c3s2)CC1 [Pictilisib] (partner 1 µM)
Summary of the method: as §1

NCI-H23
relative viability (Doramapimod + Olaparib; first compound 0.02 µM): 0.397 | relative viability (Doramapimod + Olaparib; first compound 0.06325 µM): 0.352 | relative viability (Doramapimod + Olaparib; first compound 0.2 µM): 0.417 | relative viability (Doramapimod + Olaparib; first compound 0.6325 µM): 0.335 | relative viability (Doramapimod + Olaparib; first compound 2 µM): 0.311 | relative viability (RAF265 + Olaparib; first compound 0.01 µM): 0.363 | relative viability (RAF265 + Olaparib; first compound 0.03162 µM): 0.24 | relative viability (RAF265 + Olaparib; first compound 0.1 µM): 0.294 | relative viability (RAF265 + Olaparib; first compound 0.3162 µM): 0.271 | relative viability (RAF265 + Olaparib; first compound 1 µM): 0.186 | relative viability (Doramapimod + OSI-027; first compound 0.02 µM): 0.646 | relative viability (Doramapimod + OSI-027; first compound 0.06325 µM): 0.601 | relative viability (Doramapimod + OSI-027; first compound 0.2 µM): 0.663 | relative viability (Doramapimod + OSI-027; first compound 0.6325 µM): 0.491 | relative viability (Doramapimod + OSI-027; first compound 2 µM): 0.628 | relative viability (RAF265 + Pictilisib; first compound 0.01 µM): 0.545 | relative viability (RAF265 + Pictilisib; first compound 0.03162 µM): 0.429 | relative viability (RAF265 + Pictilisib; first compound 0.1 µM): 0.393 | relative viability (RAF265 + Pictilisib; first compound 0.3162 µM): 0.245 | relative viability (RAF265 + Pictilisib; first compound 1 µM): 0.206

NCI-H1993
relative viability (Doramapimod + Olaparib; first compound 0.02 µM): 0.983 | relative viability (Doramapimod + Olaparib; first compound 0.06325 µM): 0.908 | relative viability (Doramapimod + Olaparib; first compound 0.2 µM): 1.14 | relative viability (Doramapimod + Olaparib; first compound 0.6325 µM): 1.07 | relative viability (Doramapimod + Olaparib; first compound 2 µM): 0.794 | relative viability (RAF265 + Olaparib; first compound 0.01 µM): 1.21 | relative viability (RAF265 + Olaparib; first compound 0.03162 µM): 1.41 | relative viability (RAF265 + Olaparib; first compound 0.1 µM): 1.19 | relative viability (RAF265 + Olaparib; first compound 0.3162 µM): 1.07 | relative viability (RAF265 + Olaparib; first compound 1 µM): 0.886 | relative viability (Doramapimod + OSI-027; first compound 0.02 µM): 0.573 | relative viability (Doramapimod + OSI-027; first compound 0.06325 µM): 0.566 | relative viability (Doramapimod + OSI-027; first compound 0.2 µM): 0.59 | relative viability (Doramapimod + OSI-027; first compound 0.6325 µM): 0.495 | relative viability (Doramapimod + OSI-027; first compound 2 µM): 0.522 | relative viability (RAF265 + Pictilisib; first compound 0.01 µM): 0.888 | relative viability (RAF265 + Pictilisib; first compound 0.03162 µM): 0.805 | relative viability (RAF265 + Pictilisib; first compound 0.1 µM): 0.934 | relative viability (RAF265 + Pictilisib; first compound 0.3162 µM): 0.824 | relative viability (RAF265 + Pictilisib; first compound 1 µM): 0.763

HCC-827
relative viability (Doramapimod + Olaparib; first compound 0.02 µM): 0.766 | relative viability (Doramapimod + Olaparib; first compound 0.06325 µM): 0.596 | relative viability (Doramapimod + Olaparib; first compound 0.2 µM): 0.6 | relative viability (Doramapimod + Olaparib; first compound 0.6325 µM): 0.679 | relative viability (Doramapimod + Olaparib; first compound 2 µM): 0.396 | relative viability (RAF265 + Olaparib; first compound 0.01 µM): 0.727 | relative viability (RAF265 + Olaparib; first compound 0.03162 µM): 0.7 | relative viability (RAF265 + Olaparib; first compound 0.1 µM): 0.794 | relative viability (RAF265 + Olaparib; first compound 1 µM): 0.512 | relative viability (Doramapimod + OSI-027; first compound 0.02 µM): 0.715 | relative viability (Doramapimod + OSI-027; first compound 0.06325 µM): 0.762 | relative viability (Doramapimod + OSI-027; first compound 0.2 µM): 0.756 | relative viability (Doramapimod + OSI-027; first compound 0.6325 µM): 0.763 | relative viability (Doramapimod + OSI-027; first compound 2 µM): 0.544 | relative viability (RAF265 + Pictilisib; first compound 0.01 µM): 0.99 | relative viability (RAF265 + Pictilisib; first compound 0.03162 µM): 1.04 | relative viability (RAF265 + Pictilisib; first compound 0.1 µM): 1.05 | relative viability (RAF265 + Pictilisib; first compound 1 µM): 0.571

NCI-H650
relative viability (Doramapimod + Olaparib; first compound 0.02 µM): 0.468 | relative viability (Doramapimod + Olaparib; first compound 0.06325 µM): 0.47 | relative viability (Doramapimod + Olaparib; first compound 0.2 µM): 0.403 | relative viability (Doramapimod + Olaparib; first compound 0.6325 µM): 0.413 | relative viability (Doramapimod + Olaparib; first compound 2 µM): 0.395 | relative viability (RAF265 + Olaparib; first compound 0.01 µM): 0.384 | relative viability (RAF265 + Olaparib; first compound 0.03162 µM): 0.383 | relative viability (RAF265 + Olaparib; first compound 0.1 µM): 0.376 | relative viability (RAF265 + Olaparib; first compound 0.3162 µM): 0.324 | relative viability (RAF265 + Olaparib; first compound 1 µM): 0.174 | relative viability (Doramapimod + OSI-027; first compound 0.02 µM): 0.544 | relative viability (Doramapimod + OSI-027; first compound 0.06325 µM): 0.626 | relative viability (Doramapimod + OSI-027; first compound 0.2 µM): 0.61 | relative viability (Doramapimod + OSI-027; first compound 0.6325 µM): 0.608 | relative viability (Doramapimod + OSI-027; first compound 2 µM): 0.52 | relative viability (RAF265 + Pictilisib; first compound 0.01 µM): 0.805 | relative viability (RAF265 + Pictilisib; first compound 0.03162 µM): 0.94 | relative viability (RAF265 + Pictilisib; first compound 0.1 µM): 0.766 | relative viability (RAF265 + Pictilisib; first compound 0.3162 µM): 0.698 | relative viability (RAF265 + Pictilisib; first compound 1 µM): 0.466

CAL-12T
relative viability (Doramapimod + Olaparib; first compound 0.02 µM): 0.724 | relative viability (Doramapimod + Olaparib; first compound 0.06325 µM): 0.711 | relative viability (Doramapimod + Olaparib; first compound 0.2 µM): 0.68 | relative viability (Doramapimod + Olaparib; first compound 0.6325 µM): 0.758 | relative viability (Doramapimod + Olaparib; first compound 2 µM): 0.609 | relative viability (RAF265 + Olaparib; first compound 0.01 µM): 0.84 | relative viability (RAF265 + Olaparib; first compound 0.03162 µM): 0.645 | relative viability (RAF265 + Olaparib; first compound 0.1 µM): 0.677 | relative viability (RAF265 + Olaparib; first compound 0.3162 µM): 0.592 | relative viability (RAF265 + Olaparib; first compound 1 µM): 0.593 | relative viability (Doramapimod + OSI-027; first compound 0.02 µM): 0.627 | relative viability (Doramapimod + OSI-027; first compound 0.06325 µM): 0.672 | relative viability (Doramapimod + OSI-027; first compound 0.2 µM): 0.579 | relative viability (Doramapimod + OSI-027; first compound 0.6325 µM): 0.711 | relative viability (Doramapimod + OSI-027; first compound 2 µM): 0.532 | relative viability (RAF265 + Pictilisib; first compound 0.01 µM): 0.359 | relative viability (RAF265 + Pictilisib; first compound 0.03162 µM): 0.407 | relative viability (RAF265 + Pictilisib; first compound 0.1 µM): 0.293 | relative viability (RAF265 + Pictilisib; first compound 0.3162 µM): 0.278 | relative viability (RAF265 + Pictilisib; first compound 1 µM): 0.223

NCI-H838
relative viability (Doramapimod + Olaparib; first compound 0.02 µM): 0.794 | relative viability (Doramapimod + Olaparib; first compound 0.06325 µM): 0.833 | relative viability (Doramapimod + Olaparib; first compound 0.2 µM): 0.811 | relative viability (Doramapimod + Olaparib; first compound 0.6325 µM): 0.873 | relative viability (Doramapimod + Olaparib; first compound 2 µM): 0.737 | relative viability (RAF265 + Olaparib; first compound 0.01 µM): 0.829 | relative viability (RAF265 + Olaparib; first compound 0.03162 µM): 0.725 | relative viability (RAF265 + Olaparib; first compound 0.1 µM): 0.752 | relative viability (RAF265 + Olaparib; first compound 0.3162 µM): 0.694 | relative viability (RAF265 + Olaparib; first compound 1 µM): 0.594 | relative viability (Doramapimod + OSI-027; first compound 0.02 µM): 0.383 | relative viability (Doramapimod + OSI-027; first compound 0.06325 µM): 0.364 | relative viability (Doramapimod + OSI-027; first compound 0.2 µM): 0.376 | relative viability (Doramapimod + OSI-027; first compound 0.6325 µM): 0.369 | relative viability (Doramapimod + OSI-027; first compound 2 µM): 0.326 | relative viability (RAF265 + Pictilisib; first compound 0.01 µM): 0.53 | relative viability (RAF265 + Pictilisib; first compound 0.03162 µM): 0.444 | relative viability (RAF265 + Pictilisib; first compound 0.1 µM): 0.397 | relative viability (RAF265 + Pictilisib; first compound 0.3162 µM): 0.362 | relative viability (RAF265 + Pictilisib; first compound 1 µM): 0.342

NCI-H2228
relative viability (Doramapimod + Olaparib; first compound 0.02 µM): 0.558 | relative viability (Doramapimod + Olaparib; first compound 0.06325 µM): 0.599 | relative viability (Doramapimod + Olaparib; first compound 0.2 µM): 0.857 | relative viability (Doramapimod + Olaparib; first compound 0.6325 µM): 0.811 | relative viability (Doramapimod + Olaparib; first compound 2 µM): 0.592 | relative viability (RAF265 + Olaparib; first compound 0.01 µM): 0.915 | relative viability (RAF265 + Olaparib; first compound 0.03162 µM): 0.691 | relative viability (RAF265 + Olaparib; first compound 0.1 µM): 0.726 | relative viability (RAF265 + Olaparib; first compound 0.3162 µM): 0.291 | relative viability (RAF265 + Olaparib; first compound 1 µM): 0.246 | relative viability (Doramapimod + OSI-027; first compound 0.02 µM): 0.779 | relative viability (Doramapimod + OSI-027; first compound 0.06325 µM): 0.513 | relative viability (Doramapimod + OSI-027; first compound 0.2 µM): 0.571 | relative viability (Doramapimod + OSI-027; first compound 0.6325 µM): 0.671 | relative viability (Doramapimod + OSI-027; first compound 2 µM): 0.388 | relative viability (RAF265 + Pictilisib; first compound 0.01 µM): 0.539 | relative viability (RAF265 + Pictilisib; first compound 0.03162 µM): 0.371 | relative viability (RAF265 + Pictilisib; first compound 0.1 µM): 0.465 | relative viability (RAF265 + Pictilisib; first compound 0.3162 µM): 0.208 | relative viability (RAF265 + Pictilisib; first compound 1 µM): 0.255

RERF-LC-KJ
relative viability (Doramapimod + Olaparib; first compound 0.02 µM): 0.916 | relative viability (Doramapimod + Olaparib; first compound 0.06325 µM): 0.864 | relative viability (Doramapimod + Olaparib; first compound 0.2 µM): 1.08 | relative viability (Doramapimod + Olaparib; first compound 0.6325 µM): 1.01 | relative viability (Doramapimod + Olaparib; first compound 2 µM): 0.887 | relative viability (RAF265 + Olaparib; first compound 0.01 µM): 0.952 | relative viability (RAF265 + Olaparib; first compound 0.03162 µM): 0.892 | relative viability (RAF265 + Olaparib; first compound 0.1 µM): 0.759 | relative viability (RAF265 + Olaparib; first compound 0.3162 µM): 0.682 | relative viability (RAF265 + Olaparib; first compound 1 µM): 0.575 | relative viability (Doramapimod + OSI-027; first compound 0.02 µM): 0.624 | relative viability (Doramapimod + OSI-027; first compound 0.06325 µM): 0.543 | relative viability (Doramapimod + OSI-027; first compound 0.2 µM): 0.603 | relative viability (Doramapimod + OSI-027; first compound 0.6325 µM): 0.6 | relative viability (Doramapimod + OSI-027; first compound 2 µM): 0.554 | relative viability (RAF265 + Pictilisib; first compound 0.01 µM): 0.49 | relative viability (RAF265 + Pictilisib; first compound 0.03162 µM): 0.236 | relative viability (RAF265 + Pictilisib; first compound 0.1 µM): 0.545 | relative viability (RAF265 + Pictilisib; first compound 0.3162 µM): 0.42 | relative viability (RAF265 + Pictilisib; first compound 1 µM): 0.23
